Results as given in patent US20100298221A1, “2-PHENOXY NICOTINE ACID DERIVATIVE AND USE THEREOF” (BAYER SCHERING PHARMA AKTIENGESELLSCHAFT, priority 2006, published 2010).

molecular target: T1, human PPARα-receptor (Homo sapiens, UniProt Q07869); assay: Cellular transactivation assay (GAL4-PPARα chimera, luciferase reporter, CHO cells); format: cell-based; details: CHO cells stably expressing GAL4-PPARα chimera and luciferase reporter; stimulation time 6 h
T1 construct: expressed in transfected cells; host or cells: CHO (chinese hamster ovary) cells, stably transfected
T1 sequence (Q07869 167-468): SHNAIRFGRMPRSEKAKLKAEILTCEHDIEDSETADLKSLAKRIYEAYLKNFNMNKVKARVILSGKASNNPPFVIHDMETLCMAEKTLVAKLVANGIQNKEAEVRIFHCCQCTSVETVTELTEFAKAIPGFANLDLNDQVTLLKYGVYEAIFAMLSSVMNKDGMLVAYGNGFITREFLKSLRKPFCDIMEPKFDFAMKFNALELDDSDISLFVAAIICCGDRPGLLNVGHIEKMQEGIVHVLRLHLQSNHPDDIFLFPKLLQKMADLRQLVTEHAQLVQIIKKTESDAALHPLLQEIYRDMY
Excerpt: A cellular assay is used to identify activators of the peroxisome proliferator-activated receptor alpha (PPAR-alpha).
Since mammalian cells contain different endogenous nuclear receptors which can complicate unambiguous interpretation of the results, an established chimera system is used, in which the ligand binding domain of the human PPARα-receptor is fused to the DNA binding domain of the yeast transcription factors GAL4. The GAL4-PPARα chimera thus formed is co-transfected and expressed stably in CHO cells with a reporter construct.
The GAL4-PPARα expression construct contains the ligand binding domain of PPARα (amino acids 167-468), which is PCR-amplified and cloned into the vector pcDNA3.1. This vector already contains the GAL4 DNA binding domain (amino acids 1-147) of the vector pFC2-dbd (Stratagene). The reporter construct, which contains five copies of the GAL4 binding site upstream of a thymidine kinase promoter, leads to the expression of firefly luciferase (Photinus pyralis) after activation and binding of GAL4-PPARα.
The day before the test, CHO (chinese hamster ovary) cells which stably express the above-described GAL4-PPARα chimera and luciferase reporter gene construct are plated out in 96-hole microtiter plates with 1×10^3 cells in medium (Optimem, GIBCO), 2% activated carbon-purified fetal calf serum (Hyclone), 1.35 mM sodium pyruvate (GIBCO), 0.2% sodium bicarbonate (GIBCO), and kept in a cell incubator (air humidity 96%, 5% v/v CO2, 37° C.). On the day of the test, the substances to be tested are taken up in abovementioned medium, but without addition of calf serum, and added to the cells. After a stimulation time of 6 h, the luciferase activity is measured with the aid of a video camera. The relative light units measured give a sigmoid stimulation curve as a function of the substance concentration. The EC50 values are calculated with the aid of the computer program GraphPad PRISM (Version 3.02).

Row | EC50 | SMILES
1 | 157 nM | Cc1cc(-c2ccc(C(=O)O)c(Oc3ccccc3Cl)n2)ccc1F [Example 4, 2-(2-Chlorophenoxy)-6-(4-fluoro-3-methylphenyl)nicotinic acid]
2 | 33 nM | Cc1ccc(-c2ccc(C(=O)O)c(Oc3ccccc3Cl)n2)cc1F [Example 5, 2-(2-Chlorophenoxy)-6-(3-fluoro-4-methylphenyl)nicotinic acid]
3 | 14 nM | Cc1ccc(-c2cc(C(F)(F)F)c(C(=O)O)c(Oc3ccccc3Cl)n2)cc1F [Example 11, 2-(2-Chlorophenoxy)-6-(3-fluoro-4-methylphenyl)-4-(trifluoromethyl)nicotinic acid]
4 | 870 nM | O=C(O)c1ccc(-c2ccc(Cl)nc2)nc1Oc1ccccc1Cl [Example 16, 6′-Chloro-6-(2-chlorophenoxy)-2,3′-bipyridine-5-carboxylic acid]
5 | 69 nM | N#Cc1ccc(Cl)c(Oc2nc(-c3cc(F)cc(F)c3)ccc2C(=O)O)c1 [Example 17, 2-(2-Chloro-5-cyanophenoxy)-6-(3,5-difluorophenyl)nicotinic acid]
6 | 76 nM | O=C(O)c1ccc(-c2cccc(F)c2F)nc1Oc1ccccc1OC(F)(F)F [Example 26, 2-(2-Trifluoromethoxyphenoxy)-6-(2,3-difluorophenyl)nicotinic acid]
7 | 34 nM | Cc1ccc(-c2nc(Oc3ccccc3Cl)c(C(=O)O)cc2F)cc1F [Example 36, 2-(2-Chlorophenoxy)-5-fluoro-6-(3-fluoro-4-methylphenyl)nicotinic acid]
8 | 360 nM | O=C(O)c1cc(F)c(-c2ccc(C(F)(F)F)cc2)nc1Oc1ccccc1Cl [Example 38, 2-(2-Chlorophenoxy)-5-fluoro-6-(4-trifluoromethylphenyl)nicotinic acid]
9 | 541 nM | COc1cccc(-c2cc(C(F)(F)F)c(C(=O)O)c(Oc3ccccc3Cl)n2)c1F [Example 42, 2-(2-Chlorophenoxy)-6-(2-fluoro-3-methoxyphenyl)-4-trifluoromethylnicotinic acid]
